Measurements taken from ChEMBL document CHEMBL3991601, “The target landscape of clinical kinase drugs” (Science, 2017).
The source made the active and inactive calls.

Biological target: T1, Ephrin type-B receptor 3 (Homo sapiens, UniProt P54753)
T1 sequence (P54753 whole entry): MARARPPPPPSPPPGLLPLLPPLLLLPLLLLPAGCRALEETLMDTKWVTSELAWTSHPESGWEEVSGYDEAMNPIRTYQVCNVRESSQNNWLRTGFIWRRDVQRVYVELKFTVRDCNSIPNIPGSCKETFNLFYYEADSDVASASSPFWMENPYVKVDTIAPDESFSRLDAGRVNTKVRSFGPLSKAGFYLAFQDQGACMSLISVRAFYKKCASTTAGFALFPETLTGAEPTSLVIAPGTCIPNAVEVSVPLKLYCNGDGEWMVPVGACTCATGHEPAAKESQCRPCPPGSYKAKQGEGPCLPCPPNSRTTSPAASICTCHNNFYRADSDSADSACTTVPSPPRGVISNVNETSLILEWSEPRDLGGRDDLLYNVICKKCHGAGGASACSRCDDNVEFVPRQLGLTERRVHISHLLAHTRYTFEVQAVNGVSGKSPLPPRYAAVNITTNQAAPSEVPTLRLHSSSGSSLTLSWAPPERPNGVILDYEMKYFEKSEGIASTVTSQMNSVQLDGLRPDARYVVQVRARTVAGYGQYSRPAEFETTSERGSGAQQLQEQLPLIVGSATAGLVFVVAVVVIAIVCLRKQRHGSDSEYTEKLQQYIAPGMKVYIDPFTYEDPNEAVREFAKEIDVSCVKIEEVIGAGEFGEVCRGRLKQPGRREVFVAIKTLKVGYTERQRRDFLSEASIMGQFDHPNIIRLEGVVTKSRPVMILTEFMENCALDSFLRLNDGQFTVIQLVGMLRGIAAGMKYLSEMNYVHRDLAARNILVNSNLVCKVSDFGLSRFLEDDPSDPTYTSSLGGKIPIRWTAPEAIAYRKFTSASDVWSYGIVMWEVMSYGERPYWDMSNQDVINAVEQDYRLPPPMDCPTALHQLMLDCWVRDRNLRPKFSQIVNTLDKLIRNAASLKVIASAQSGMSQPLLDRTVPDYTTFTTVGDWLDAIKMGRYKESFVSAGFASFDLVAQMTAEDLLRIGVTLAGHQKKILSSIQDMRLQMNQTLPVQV
Also: in the data inactive means no Kd found up to 30 µM.

Structure (SMILES) | Kd
COc1cc(N2CCC(N3CCN(C)CC3)CC2)ccc1Nc1ncnc(Nc2ccccc2S(=O)(=O)C(C)C)n1 [ASP-3026] | 5.5 µM (active)
CNS(=O)(=O)Nc1nccc(Cc2c(C)c3ccc(Oc4ncccn4)cc3oc2=O)c1F [AVUTOMETINIB] | > 30 µM (inactive)
COc1cc(CCc2cc(NC(=O)c3ccc(N4C[C@@H](C)N[C@@H](C)C4)cc3)n[nH]2)cc(OC)c1 [AZD-4547] | > 30 µM (inactive)
Cc1cc([C@@H](C)Nc2ccccc2C(=O)O)c2nc(N3CCOCC3)cc(=O)n2c1 [AZD-6482] | > 30 µM (inactive)
COc1ccc(-c2ccc3c(N4CCOC[C@@H]4C)nc(N4CCOC[C@@H]4C)nc3n2)cc1CO [AZD-8055] | > 30 µM (inactive)
C[C@@H](Nc1cc(F)cc(F)c1)c1cc(C(=O)N(C)C)cc2c(=O)cc(N3CCOCC3)oc12 [AZD-8186] | > 30 µM (inactive)

Biological target: Epithelial discoidin domain-containing receptor 1 (Homo sapiens, UniProt Q08345)
Sequence (Q08345 whole entry, the tested form may be a part): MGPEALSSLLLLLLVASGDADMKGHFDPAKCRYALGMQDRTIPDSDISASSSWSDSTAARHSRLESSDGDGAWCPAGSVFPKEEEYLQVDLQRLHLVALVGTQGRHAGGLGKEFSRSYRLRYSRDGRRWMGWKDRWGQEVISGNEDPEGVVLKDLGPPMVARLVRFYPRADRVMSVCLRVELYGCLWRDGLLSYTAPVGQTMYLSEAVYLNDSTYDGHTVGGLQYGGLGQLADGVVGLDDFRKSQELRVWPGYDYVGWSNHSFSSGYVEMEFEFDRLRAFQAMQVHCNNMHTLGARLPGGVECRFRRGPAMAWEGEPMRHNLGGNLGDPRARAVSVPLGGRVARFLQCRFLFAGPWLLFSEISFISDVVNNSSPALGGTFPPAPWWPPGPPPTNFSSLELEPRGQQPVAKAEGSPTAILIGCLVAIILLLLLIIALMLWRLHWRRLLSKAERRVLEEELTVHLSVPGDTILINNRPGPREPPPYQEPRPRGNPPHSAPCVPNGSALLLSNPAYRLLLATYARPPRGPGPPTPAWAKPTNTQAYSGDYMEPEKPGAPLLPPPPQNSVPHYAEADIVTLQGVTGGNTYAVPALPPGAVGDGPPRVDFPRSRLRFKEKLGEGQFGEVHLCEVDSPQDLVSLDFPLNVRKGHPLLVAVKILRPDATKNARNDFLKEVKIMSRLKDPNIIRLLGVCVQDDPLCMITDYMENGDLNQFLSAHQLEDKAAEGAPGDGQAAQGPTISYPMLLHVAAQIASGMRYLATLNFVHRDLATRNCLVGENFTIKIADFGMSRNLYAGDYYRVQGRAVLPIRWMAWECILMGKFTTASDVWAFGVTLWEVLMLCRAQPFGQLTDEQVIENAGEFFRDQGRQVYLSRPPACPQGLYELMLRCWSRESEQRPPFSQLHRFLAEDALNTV

Structure (SMILES) | Kd
COc1cc(N2CCC(N3CCN(C)CC3)CC2)ccc1Nc1ncnc(Nc2ccccc2S(=O)(=O)C(C)C)n1 [ASP-3026] | 4.04 µM (active)
CNS(=O)(=O)Nc1nccc(Cc2c(C)c3ccc(Oc4ncccn4)cc3oc2=O)c1F [AVUTOMETINIB] | > 30 µM (inactive)
Cc1cc([C@@H](C)Nc2ccccc2C(=O)O)c2nc(N3CCOCC3)cc(=O)n2c1 [AZD-6482] | > 30 µM (inactive)
COc1ccc(-c2ccc3c(N4CCOC[C@@H]4C)nc(N4CCOC[C@@H]4C)nc3n2)cc1CO [AZD-8055] | > 30 µM (inactive)
C[C@@H](Nc1cc(F)cc(F)c1)c1cc(C(=O)N(C)C)cc2c(=O)cc(N3CCOCC3)oc12 [AZD-8186] | > 30 µM (inactive)

Biological target: T2, Heme oxygenase 2 (Homo sapiens, UniProt P30519)
T2 sequence (P30519 whole entry): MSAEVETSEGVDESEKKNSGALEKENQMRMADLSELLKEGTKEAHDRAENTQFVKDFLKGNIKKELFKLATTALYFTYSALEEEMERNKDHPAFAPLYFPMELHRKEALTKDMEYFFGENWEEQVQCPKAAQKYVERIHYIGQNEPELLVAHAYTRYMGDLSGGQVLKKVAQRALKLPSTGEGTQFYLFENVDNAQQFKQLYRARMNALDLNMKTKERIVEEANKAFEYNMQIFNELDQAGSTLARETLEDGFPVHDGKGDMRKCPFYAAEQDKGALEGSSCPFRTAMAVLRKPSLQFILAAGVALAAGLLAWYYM

Structure (SMILES) | Kd
COc1cc(N2CCC(N3CCN(C)CC3)CC2)ccc1Nc1ncnc(Nc2ccccc2S(=O)(=O)C(C)C)n1 [ASP-3026] | > 30 µM (inactive)
CNS(=O)(=O)Nc1nccc(Cc2c(C)c3ccc(Oc4ncccn4)cc3oc2=O)c1F [AVUTOMETINIB] | > 30 µM (inactive)
COc1cc(CCc2cc(NC(=O)c3ccc(N4C[C@@H](C)N[C@@H](C)C4)cc3)n[nH]2)cc(OC)c1 [AZD-4547] | > 30 µM (inactive)
Cc1cc([C@@H](C)Nc2ccccc2C(=O)O)c2nc(N3CCOCC3)cc(=O)n2c1 [AZD-6482] | > 30 µM (inactive)
COc1ccc(-c2ccc3c(N4CCOC[C@@H]4C)nc(N4CCOC[C@@H]4C)nc3n2)cc1CO [AZD-8055] | > 30 µM (inactive)
C[C@@H](Nc1cc(F)cc(F)c1)c1cc(C(=O)N(C)C)cc2c(=O)cc(N3CCOCC3)oc12 [AZD-8186] | > 30 µM (inactive)

Biological target: T3, Tyrosine-protein kinase Tec (Homo sapiens, UniProt P42680)
T3 sequence (P42680 whole entry): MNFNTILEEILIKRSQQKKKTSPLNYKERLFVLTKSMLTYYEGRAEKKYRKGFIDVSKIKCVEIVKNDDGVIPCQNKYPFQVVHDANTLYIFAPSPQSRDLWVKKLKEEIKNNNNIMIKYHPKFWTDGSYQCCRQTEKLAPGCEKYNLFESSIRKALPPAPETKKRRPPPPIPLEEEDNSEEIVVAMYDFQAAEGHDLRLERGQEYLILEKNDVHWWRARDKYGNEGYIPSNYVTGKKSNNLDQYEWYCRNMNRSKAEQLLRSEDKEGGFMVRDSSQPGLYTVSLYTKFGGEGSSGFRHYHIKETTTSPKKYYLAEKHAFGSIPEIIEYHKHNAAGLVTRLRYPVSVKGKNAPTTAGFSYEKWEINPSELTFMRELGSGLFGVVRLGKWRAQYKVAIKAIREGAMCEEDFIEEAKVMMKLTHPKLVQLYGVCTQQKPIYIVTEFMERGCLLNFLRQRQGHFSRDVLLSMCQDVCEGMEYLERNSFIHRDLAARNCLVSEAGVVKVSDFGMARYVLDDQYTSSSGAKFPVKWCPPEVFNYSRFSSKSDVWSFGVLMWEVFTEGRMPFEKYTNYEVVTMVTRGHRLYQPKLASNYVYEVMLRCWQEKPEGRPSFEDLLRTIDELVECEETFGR

Structure (SMILES) | Kd
COc1cc(N2CCC(N3CCN(C)CC3)CC2)ccc1Nc1ncnc(Nc2ccccc2S(=O)(=O)C(C)C)n1 [ASP-3026] | 1.02 µM (active)
CNS(=O)(=O)Nc1nccc(Cc2c(C)c3ccc(Oc4ncccn4)cc3oc2=O)c1F [AVUTOMETINIB] | > 30 µM (inactive)
COc1cc(CCc2cc(NC(=O)c3ccc(N4C[C@@H](C)N[C@@H](C)C4)cc3)n[nH]2)cc(OC)c1 [AZD-4547] | > 30 µM (inactive)
Cc1cc([C@@H](C)Nc2ccccc2C(=O)O)c2nc(N3CCOCC3)cc(=O)n2c1 [AZD-6482] | > 30 µM (inactive)
COc1ccc(-c2ccc3c(N4CCOC[C@@H]4C)nc(N4CCOC[C@@H]4C)nc3n2)cc1CO [AZD-8055] | > 30 µM (inactive)
C[C@@H](Nc1cc(F)cc(F)c1)c1cc(C(=O)N(C)C)cc2c(=O)cc(N3CCOCC3)oc12 [AZD-8186] | > 30 µM (inactive)

Biological target: T4, Dynamin-like GTPase OPA1, mitochondrial (Homo sapiens, UniProt O60313)
T4 sequence (O60313 whole entry): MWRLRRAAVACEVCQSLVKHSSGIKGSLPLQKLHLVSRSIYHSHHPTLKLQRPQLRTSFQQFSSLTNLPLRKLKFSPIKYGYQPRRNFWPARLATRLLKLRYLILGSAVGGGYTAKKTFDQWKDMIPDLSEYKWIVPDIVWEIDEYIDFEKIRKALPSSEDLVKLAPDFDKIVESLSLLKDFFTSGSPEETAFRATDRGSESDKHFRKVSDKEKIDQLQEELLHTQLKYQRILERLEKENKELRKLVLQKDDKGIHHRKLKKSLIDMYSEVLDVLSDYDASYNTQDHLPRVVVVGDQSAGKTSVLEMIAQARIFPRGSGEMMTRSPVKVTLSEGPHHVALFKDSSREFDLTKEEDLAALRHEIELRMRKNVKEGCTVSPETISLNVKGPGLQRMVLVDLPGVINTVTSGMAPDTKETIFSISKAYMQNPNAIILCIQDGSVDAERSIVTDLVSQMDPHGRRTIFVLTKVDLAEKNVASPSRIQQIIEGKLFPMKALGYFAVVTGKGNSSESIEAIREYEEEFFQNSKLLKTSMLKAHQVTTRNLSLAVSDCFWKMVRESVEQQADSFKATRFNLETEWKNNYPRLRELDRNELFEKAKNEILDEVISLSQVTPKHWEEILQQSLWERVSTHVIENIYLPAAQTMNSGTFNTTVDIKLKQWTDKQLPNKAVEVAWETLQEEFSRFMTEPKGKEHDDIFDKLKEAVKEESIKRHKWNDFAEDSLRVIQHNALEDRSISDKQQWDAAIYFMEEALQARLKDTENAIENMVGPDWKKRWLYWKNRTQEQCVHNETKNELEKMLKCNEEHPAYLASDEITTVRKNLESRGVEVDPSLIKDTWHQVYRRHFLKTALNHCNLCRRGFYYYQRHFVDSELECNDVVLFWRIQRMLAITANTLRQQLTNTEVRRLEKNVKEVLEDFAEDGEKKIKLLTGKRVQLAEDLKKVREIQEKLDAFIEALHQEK

Structure (SMILES) | Kd
COc1cc(N2CCC(N3CCN(C)CC3)CC2)ccc1Nc1ncnc(Nc2ccccc2S(=O)(=O)C(C)C)n1 [ASP-3026] | > 30 µM (inactive)
CNS(=O)(=O)Nc1nccc(Cc2c(C)c3ccc(Oc4ncccn4)cc3oc2=O)c1F [AVUTOMETINIB] | > 30 µM (inactive)
COc1cc(CCc2cc(NC(=O)c3ccc(N4C[C@@H](C)N[C@@H](C)C4)cc3)n[nH]2)cc(OC)c1 [AZD-4547] | > 30 µM (inactive)
Cc1cc([C@@H](C)Nc2ccccc2C(=O)O)c2nc(N3CCOCC3)cc(=O)n2c1 [AZD-6482] | > 30 µM (inactive)
COc1ccc(-c2ccc3c(N4CCOC[C@@H]4C)nc(N4CCOC[C@@H]4C)nc3n2)cc1CO [AZD-8055] | > 30 µM (inactive)
C[C@@H](Nc1cc(F)cc(F)c1)c1cc(C(=O)N(C)C)cc2c(=O)cc(N3CCOCC3)oc12 [AZD-8186] | > 30 µM (inactive)
